From patent US9839690B2, “Singlet oxygen-labile linkers and methods of production and use thereof” (The Board of Regents of the University of Oklahoma, priority 2012, dated 2017)
pIC50: −log10 of the molar value.

Assays:
[1] = Photophysical properties of selected compounds in DMSO; assay type: physicochemical
[2] = Oxidation of aminoacrylate linker model compound with ROS quenchers; assay type: physicochemical; conditions: model compound 9 mM, CMP-OMe 9 mM, quencher 9 mM, 690 nm, 100 mW/cm^2
Procedure: To determine the effect of specific ROS quenchers on the oxidation of the aminoacrylate linker, the rate of oxidation of aminoacrylate linker was determined by ^1H-NMR using the vinyl proton of the aminoacrylate linker (FIG. 20). A solution of (E)-N-phenyl-3-(piperidin-1-yl)acrylamide (9 mM), a photosensitizer (CMP-OMe, 9 mM), a ROS quencher (0 or 9 mM) was in a CDCl3 solvent in a NMR tube was exposed to the irradiation (690 nm diode laser, 100 mW/cm^2) and ^1H-NMR was taken every 5 min. The ROS quencher was either a singlet oxygen quencher (DABCO or β-Carotene) or a superoxide quencher (1,4-Benzoquinone) and the photosensitizer was CMP-OMe (5-(4-methoxyphenyl)-10,15,20-triphenyl-21,23-dithiaporphyrin).

[3] = Relative rates of photooxidation of the linker in CMP-L-CA4 with ROS quenchers; assay type: physicochemical; conditions: 1.2 μmol each in CDCl3, 690 nm, 10 mW/cm^2
Procedure: The reaction mixture was irradiated by using diode laser (690 nm, 10 mW/cm^2). The oxidation of the olefin with SO was monitored every 5 min by the decrease of the olefinic peaks of the aminoacrylate in ^1H-NMR

[4] = 1H-NMR of drugs and model linker compound with CMP-OMe before and after irradiation; assay type: physicochemical; conditions: 1H-NMR
Excerpt: The cleavage of aminoacrylate linkers after irradiation was supported by the increased coumarin fluorescence of 9 by irradiation (FIGS. 14-21). The unique peak of each compound was integrated against the peak of CMP-OMe (four protons of CMP-OMe at 9.7 ppm, FIG. 14), which was known to be inert to singlet oxygen oxidation. […] However, we observed 77% decrease of the proton peak of the aminoacrylate linker after the irradiation (FIG. 21). […] PD 9 had negligible coumarin emission compared to that of free coumarin at the equimolar concentration. In the presence of 10 μM of 9, MCF-7 cells were incubated for 24 h to activate dPS. Then, the samples were irradiated by visible light (540±10 nm, 8 mW/cm^2, 30 min). […] The released free coumarin was also detected and quantified by HPLC based on the standard curve of free coumarin. As such, almost 99% of 9 released coumarin while only 64% of dPS of 9 were activated when irradiated.

tubulin = target: T1, tubulin (Sus scrofa, UniProt P02554); experiment: Fluorescence-based tubulin polymerization assay; assay type: biochemical; conditions: 3 μM
T1 construct: purchased Cytoskeleton, Inc. BK011P
Procedure: Paclitaxel and CA4 were used as positive control drugs (a polymerization enhancer and an inhibitor, respectively) in addition to the negative control group (FIG. 32).
The fluorescence-based tubulin polymerization was determined by using a kit supplied by Cytoskeleton, Inc. (cat #=BK011P). Its basic principle is that the fluorescence reporter increases as it is incorporated into microtubules during the course of polymerization. The assay was performed following the experimental procedure as described in version 2.1 of the tubulin polymerization assay kit manual. Briefly, the test drug (final concentration=3 μM) was added to a mixture of tubulin and GTP in a buffer solution, and the reaction mixture was incubated at 37° C. Fluorescence was monitored (excitation=360 nm and emission=450 nm) by using a fluorescence plate reader (SpectraMax Gemini EM, Molecular device). Paclitaxel and CA4 were included in the assay as positive controls in addition to the negative control (vehicle only).

MCF-7 cells [5] = experiment: Dark toxicity, MTT (Example 5); assay type: cell-based
Procedure: It seemed that the bulky groups, CMP-L and CMP-NCL, reduced the cytotoxic activity of CA4, presumably through the interference of its binding to tubulin as estimated by the modeling study.
(§1) MCF-7 cells were maintained in minimum essential medium (α-MEM) supplemented with 10% bovine growth serum, 2 mM L-glutamine, 50 units/mL penicillin G, 50 μg/mL streptomycin and 1.0 μg/mL fungizone. MCF-7 cells (5,000 cells/well) were seeded on 96-well plates in the medium and then incubated for 24 h at 37° C. in 5% CO2. Stock solutions (2 mM) were prepared in DMSO. The stocks were further diluted with medium to get necessary final concentrations. The diluted solution (10 μL) was then added to each well (190 μL). The plates were incubated for 24 h and then removed from the incubator. For the phototoxicity study: The plate without a cover was placed on an orbital shaker (Lab-line, Barnstead International) and irradiated by using a diode laser (690 nm, 5.6 mW/cm^2) for 30 min. To ensure uniformity of the light during the irradiation, each plate was shaken gently on an orbital shaker. For the dark toxicity study: Plates were kept in the dark for 30 min, and then returned to the incubator. Cell viability was determined after 3 days by using the MTT assay. Briefly, a 10 μL solution of MTT (10 mg in 1 mL PBS buffer) was added to each well and the plate was incubated for 4 h. Then, the MTT solution was removed and the cells were dissolved in 200 μL of DMSO and the absorbance within each well was measured at 570 nm with background subtraction at 650 nm. The cell viability was then quantified by measuring the absorbance of the treated wells compared to that of the untreated wells (controls) and expressed as a percentage.

MCF-7 cells [6] = experiment: Phototoxicity, MTT (Example 5); assay type: cell-based
Procedure: On the other hand, only a photodynamic effect could damage cells by [CMP-NCL-CA4+hv].
as §1, with “For the dark toxicity study: Plates were kept in the dark for 30 min, and then returned to the incubator.” left out, “Briefly, a 10 μL solution of MTT (10 mg in 1 mL PBS buffer) was added to each well and the plate was incubated for 4 h.” left out

[7] = literature (ref 88); cited from earlier work
MCF-7 cells [8] = experiment: Dark toxicity, MTT cell viability (Example 4); assay type: cell-based; conditions: MCF-7, 96 hr, no irradiation
Procedure: MCF-7 cells (5,000 cells/well) were seeded in 96 well plates. After the plates were incubated for 24 hr, the culture medium was aspirated and the cells were washed with cold PBS (100 μL) once. Then, prodrug in the 200 μL culture media was added to cells. The final concentrations ranging from 1 nM to 1 μM were used to perform concentration dependent cell viability and 25 nM prodrug was used to perform time dependent drug release study. After 96 hr incubation, the cell viability was determined by MTT assay detailed below. The experiments were performed in triplicate. IC50 values were calculated with GraphPad Prism 5.
Cell viability was assessed by MIT assay.^89 In brief, after thoroughly washing the cells 2× with PBS buffer, the cells were treated with 200 μL 0.5 mg/mL MIT (3-(4,5-dimethylthiazol-2-yl)-2,5-diphenyltetrazolium bromide, a yellow tetrazole). Subsequently, the cells were incubated at 37° C. under a humidified atmosphere of 5% CO2 for 4 h. After 4 h of incubation, the solution from each well was taken out, and washed with PBS one time and added 100 μL DMSO. The plates were shaken at room temperature for 10 min and read immediately at 570 nm on a microplate reader (Spectra max, Molecular devices). Cell viability (%) was expressed as a ratio of treated cells to control cells.

[9] = literature (ref 79); cited from earlier work
[10] = Photooxidation of 1,2-diheteroatom-substituted olefins with CMP-OMe, 690 nm diode laser (Example 2); assay type: physicochemical
Procedure: In a NMR tube, an olefin (0.0048 mmol) was dissolved in CDCl3 (0.5 mL). The photosensitizer [5-(4-methoxyphenyl)-10,15,20-triphenyl-21-23-dithiaporphyrin, CMP-OMe, 3 mg, 0.0048 mmol] was added to this solution. Then, the reaction mixture was irradiated for 15 min using a diode laser (690 nm, 200 mW/cm^2). The reaction of olefins with singlet oxygen was monitored by the decrease of olefinic peaks in ^1H-NMR spectra. The formation of the photooxidation products were also determined by appearance of the formate (or thioformate) peaks in ^1H-NMR spectra.
To examine the oxidation rate of these electron-rich alkenes with singlet oxygen (Scheme 4), compounds 6, 8, and 10 were irradiated in the presence of 5-(4-methoxyphenyl)-10,15,20-triphenyl-21,23-dithiaporphyrin as a photosensitizer.^53 All experiments were performed following the standard procedure previously set with a slight modification by using a 690 nm diode laser source (200 mW/cm^2).^35 In the experiments, the amount of sensitizer used was not catalytic. Here, the ratio of olefin and photosensitizer used was 1:1 to mimic the situation of prodrug where the olefinic linker could be used for connecting one drug molecule to one photosensitizer molecule.^7,35 The reaction solutions were irradiated for 15 min and monitored every 5 min using olefinic peaks in ^1H-NMR each time to monitor the progress of the reactions. Upon the oxidation by singlet oxygen, the olefinic peaks decreased.

[11] = Photooxygenation of model compounds 2-16 with dithiaporphyrin photosensitizer, 690 nm diode laser (Example 3); assay type: physicochemical
Procedure: To evaluate the rate of oxidation by singlet oxygen, the model compounds 2-7 were irradiated by a diode laser (690 nm, 200 mW/cm2, 25 min) in the presence of the photosensitizer 5-(4-methoxyphenyl)-10,15,20-[…]-21,23-dithiaporphyrin (FIG. 11 and Table 5). The reaction of olefins with singlet oxygen was monitored by the decrease of olefinic proton peaks in the ^1H-NMR spectra. (Z)-1,2-Bis(phenylthio)ethylene was used as positive control. […] Oxidation of only the nitrogen analogues is probably due to electron donation from the nitrogen to the carbonyl group making the olefinic bond electron rich for attack by singlet oxygen.
In a NMR tube, an olefin (0.0048 mmol) was dissolved in CDCl3 (0.5 mL). The photosensitizer compound (32), 3 mg, 0.0048 mmol] was added to this solution. […] The reaction of olefins with singlet oxygen was monitored by the decrease of olefinic peaks in ^1H-NMR spectra. In the case of compound 14, 15 and 16 no photosensitizer was added.

[12] = 0 min, 690 nm diode laser, 200 mW/cm^2, CDCl3, no added photosensitizer for 14, 15, 16

T1 sequence (P02554 whole entry): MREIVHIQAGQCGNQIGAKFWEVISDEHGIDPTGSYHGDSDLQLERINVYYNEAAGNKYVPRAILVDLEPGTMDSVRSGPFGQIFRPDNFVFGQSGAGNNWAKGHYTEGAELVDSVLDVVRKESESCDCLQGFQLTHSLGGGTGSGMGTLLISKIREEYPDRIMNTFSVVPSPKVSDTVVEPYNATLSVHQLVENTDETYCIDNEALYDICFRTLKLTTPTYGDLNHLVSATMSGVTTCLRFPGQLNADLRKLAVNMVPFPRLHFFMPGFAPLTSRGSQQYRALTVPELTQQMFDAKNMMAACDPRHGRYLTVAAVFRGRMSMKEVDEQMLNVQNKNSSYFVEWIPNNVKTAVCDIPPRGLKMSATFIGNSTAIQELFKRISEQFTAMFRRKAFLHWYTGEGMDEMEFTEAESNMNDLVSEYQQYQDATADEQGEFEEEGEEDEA
T1 sequence (P02550 whole entry partner): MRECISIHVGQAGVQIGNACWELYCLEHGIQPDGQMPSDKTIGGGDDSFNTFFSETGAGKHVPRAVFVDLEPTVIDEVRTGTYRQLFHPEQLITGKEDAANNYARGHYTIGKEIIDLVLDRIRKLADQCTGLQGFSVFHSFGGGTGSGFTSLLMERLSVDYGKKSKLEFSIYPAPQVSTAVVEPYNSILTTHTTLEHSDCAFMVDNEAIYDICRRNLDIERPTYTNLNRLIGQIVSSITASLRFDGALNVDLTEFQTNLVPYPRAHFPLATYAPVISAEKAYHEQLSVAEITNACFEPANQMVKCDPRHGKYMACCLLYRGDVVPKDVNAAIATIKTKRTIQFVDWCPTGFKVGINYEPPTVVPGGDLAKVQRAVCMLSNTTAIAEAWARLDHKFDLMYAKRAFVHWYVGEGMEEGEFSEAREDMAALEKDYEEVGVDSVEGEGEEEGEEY

## 5-(6) carboxy-fluorescein
[1]
  Extinction Coefficient: 80000 M⁻¹ cm⁻¹
  FQY (φ), fluorescence quantum yield: 0.90
  emax (emission maximum): 525 nm
  λmax (absorption maximum): 462 nm

## O=C1C=CC(=O)C=C1 [1,4-benzoquinone]
[2]
  Effect of ROS quencher on oxidation of the aminoacrylate linker: did not make any delay of the oxidation of the linker
[3]
  Effect of ROS quencher on oxidation of aminoacrylate linker of CMP-L-CA4: did not have any effect on the oxidation of the aminoacrylate linker

## Cc1cc(=O)oc2cc(O)ccc12 [7-hydroxy-4-methyl-coumarin]
[1]
  Extinction Coefficient: 15800 M⁻¹ cm⁻¹
  FQY (φ), fluorescence quantum yield: 0.14
  emax (emission maximum): 378 nm
  λmax (absorption maximum): 325 nm
[4]
  Oxidation under the irradiation condition: not oxidized at all

## COc1ccc(/C=C\c2cc(OC)c(OC)c(OC)c2)cc1OCCCN1CCN(C(=O)COc2ccc(-c3c4nc(c(-c5ccccc5)c5ccc(s5)c(-c5ccccc5)c5nc(c(-c6ccccc6)c6ccc3s6)C=C5)C=C4)cc2)CC1 [CMP-NCL-CA4]
tubulin; 1 h incubation at 37° C.
  Inhibition of tubulin polymerization: 9%
MCF-7 cells [5]; MCF-7, dark, 3 days, read-out: IC50D (dark toxicity)
  pIC50: 5.74
MCF-7 cells [5]; dark
  Reduction of cytotoxicity relative to CA4: 200 fold
MCF-7 cells [6]; IC50 dark vs irradiated
  Increase of cytotoxicity after irradiation: 1.7 fold
MCF-7 cells [6]; MCF-7, 690 nm, 5.6 mW/cm^2, 30 min, read-out: IC50 after irradiation (phototoxicity)
  pIC50: 5.97

## C1CN2CCN1CC2 [DABCO, 1,4-diazabicyclo[2.2.2]octane]
[2]
  Effect of ROS quencher on oxidation of the aminoacrylate linker: effectively delayed the oxidation of the aminoacrylate linker
[3]
  Effect of ROS quencher on oxidation of aminoacrylate linker of CMP-L-CA4: dramatically delayed the oxidation of aminoacrylate
[7]
  Singlet oxygen quenching rate constant k: 2.6e+08 M⁻¹ s⁻¹

## CCc1c2c(nc3ccc(O)cc13)-c1cc3c(c(=O)n1C2)COC(=O)[C@]3(O)CC [SN-38]
[4]
  Oxidation under the irradiation condition: not oxidized at all
MCF-7 cells [8]
  IC50: 170 nM
[9]
  Times more active than irinotecan: at least 1000 times

## C(=C/Sc1ccccc1)/Sc1ccccc1 [control, (Z)-1,2-Bis(phenylthio) ethene]
[10]; 0 min, CMP-OMe, 690 nm, 200 mW/cm^2, CDCl3
  Remaining olefins (%): 100%
[10]; 5 min
  Remaining olefins (%): 38%
[10]; 10 min
  Remaining olefins (%): 11%
[10]; 15 min
  Remaining olefins (%): 0%
[11]; [12]
  Percentile of remaining compound: 100
[11]; 5 min
  Percentile of remaining compound: 70
[11]; 10 min
  Percentile of remaining compound: 59
[11]; 15 min
  Percentile of remaining compound: 41
[11]; 20 min
  Percentile of remaining compound: 23
[11]; 25 min
  Percentile of remaining compound: 13
[11]; 25 min of irradiation
  Decrease of olefinic proton peaks (photo-oxidation): 87%

## CC(=O)O[C@H]1C(=O)[C@@]2(C)[C@H]([C@H](OC(=O)c3ccccc3)[C@]3(O)C[C@H](OC(=O)[C@H](O)[C@@H](NC(=O)c4ccccc4)c4ccccc4)C(C)=C1C3(C)C)[C@]1(OC(C)=O)CO[C@@H]1C[C@@H]2O [paclitaxel]
tubulin
  Pattern of kinetic trace of tubulin polymerization: enhancer

## CC1=C(/C=C/C(C)=C/C=C/C(C)=C/C=C/C=C(C)/C=C/C=C(C)/C=C/C2=C(C)CCCC2(C)C)C(C)(C)CCC1 [β-carotene]
[2]
  Effect of ROS quencher on oxidation of the aminoacrylate linker: effectively delayed the oxidation of the aminoacrylate linker
[3]
  Effect of ROS quencher on oxidation of aminoacrylate linker of CMP-L-CA4: dramatically delayed the oxidation of aminoacrylate
[7]
  Singlet oxygen quenching rate constant k: 1.2e+10 M⁻¹ s⁻¹

## (E)-((13S)-13-Methyl-17-oxo-7,8,9,11,12,13,14,15,16,17-decahydro-6H cyclopenta[a] phenanthren-3-yl)3-(4-((2-phenoxy-10,15,20-triphenyl-21,23-dithiaporphyrinacetoxy)methyl) piperidin-1-yl)acrylate [Compound 16 (Example 3)]
[11]; [12]
  Percentile of remaining compound: 100
[11]; 5 min
  Percentile of remaining compound: 60
[11]; 10 min
  Percentile of remaining compound: 10
[11]; GC-MS / SI
  Release of parent molecule after irradiation: successfully released Estrone
[11]; in 10 min
  Photo-oxidation: 90%
